Source: patent EP2857388A1, “Azoles containing sulfone” (Grünenthal GmbH, priority 2013, dated 2015)

Biological target: T1, human B1R (Homo sapiens, UniProt P46663)
T1 construct: expressed in transfected cells; host or cells: CHO K1 cells (Chinese Hamster Ovary), stably transfected
T1 sequence (P46663 1-353): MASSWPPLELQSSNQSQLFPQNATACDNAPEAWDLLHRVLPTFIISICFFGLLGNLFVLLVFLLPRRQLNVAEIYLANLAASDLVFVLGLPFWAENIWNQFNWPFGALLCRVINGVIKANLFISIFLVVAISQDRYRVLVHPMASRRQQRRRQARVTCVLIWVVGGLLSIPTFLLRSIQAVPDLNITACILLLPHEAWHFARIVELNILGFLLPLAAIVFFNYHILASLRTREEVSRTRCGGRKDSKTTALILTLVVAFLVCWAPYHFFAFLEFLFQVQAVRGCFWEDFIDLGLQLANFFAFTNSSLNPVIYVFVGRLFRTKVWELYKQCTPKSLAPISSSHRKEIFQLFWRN
Test: Functional assay at bradykinin receptor 1 (B1R): Ca2+ fluorescence (Fluo-4) in FLIPR/Novostar, antagonist mode
Assay type: cell-based
Settings: test substance 10 µM; CHO K1 cells stably transfected with human B1R gene (hB1R-Zellen); agonist Lys-Des-Arg9-Bradykinin at EC80; % inhibition relative to maximal achievable inhibition; read-out: % Inhibierung (human B1R) bei 10 µM
How it was run: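 CHO K1 cells stably expressing human B1R were loaded with Fluo-4 and preincubated 6–20 min with test compound before Lys-Des-Arg9-bradykinin at its EC80. Peak fluorescence (ex 488/em 540 nm) gave % inhibition versus maximal inhibition; IC50 from several concentrations, n=2 or 3.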

Compound | inhibition at 10 µM
COc1cc(C)c(S(=O)(=O)Cc2c(C)nn(CC(=O)NC3CCC(NC4CC4)CC3(C)C)c2C)c(C)c1 (stereo not drawn) [CC-174, N-[4-(Cyclopropylamino)-2,2-dimethyl-cyclohexyl]-2-[4-([(4-methoxy-2,6-dimethyl-phenyl)sulfonyl]-methyl]-3,5-dimethyl-1 H-pyrazol-1-yl]-acetamid] | 100%
COc1cc(C)c(S(=O)(=O)Cc2cn(CC(=O)NC3CCC(N4CCCC4)CC3)nn2)c(C)c1 (stereo not drawn) [CC-167, 2-[4-[[(4-Methoxy-2,6-dimethyl-phenyl)sulfonyl]-methyl]-1H-[1,2,3]triazol-1-yl]-N-(4-pyrrolidin-1-yl-cyclohexyl)-acetamid] | 100%
COc1cc(C)c(S(=O)(=O)Cc2nc(CC(=O)NC3CCC(c4ccncc4)CC3(C)C)no2)c(C)c1 (stereo not drawn) [CC-37, N-(2,2-Dimethyl-4-pyridin-4-yl-cyclohexyl)-2-[5-[[(4-methoxy-2,6-dimethyl-phenyl)sulfonyl]-methyl]-[1,2,4]oxadiazol-3-yl]-acetamid] | 99%
COc1cc(C)c(S(=O)(=O)Cc2cn(CC(=O)NC3CCN(C)CC3(C)C)nn2)c(C)c1 (stereo not drawn) [CC-183, 2-[4-[[(4-Methoxy-2,6-dimethyl-phenyl)sulfonyl]-methyl]-1H-[1,2,3]triazol-1-yl]-N-(1,3,3-trimethyl-piperidin-4-yl)-acetamid] | 100%
COc1cc(C)c(S(=O)(=O)Cc2noc(CC(=O)NC3CCN(c4ccc(C(F)(F)F)cn4)CC3)n2)c(C)c1 [CC-03, 2-[3-[[(4-Methoxy-2,6-dimethyl-phenyl)sulfonyl]-methyl]-[1,2,4]oxadiazol-5-yl]-N-[1-[5-(trifluor-methyl)-pyridin-2-yl]-piperidin-4-yl]-acetamid] | 91%
COc1cc(C)c(S(=O)(=O)Cc2nc(CC(=O)N(C3CCC(N(C)C)CC3)C3CC3)no2)c(C)c1 (stereo not drawn) [CC-116, N-Cyclopropyl-N-(4-dimethylamino-cyclohexyl)-2-[5-[[(4-methoxy-2,6-dimethyl-phenyl)sulfonyl]-methyl]-[1,2,4]oxadiazol-3-yl]-acetamid] | 100%
Cc1cc(S(=O)(=O)Cc2noc(CC(=O)NC3CCC(c4ccncc4)CC3(C)C)n2)c(C)cc1Cl (stereo not drawn) [CC-80, 2-[3-[[(4-Chlor-2,5-dimethyl-phenyl)sulfonyl]-methyl]-[1,2,4]oxadiazol-5-yl]-N-(2,2-dimethyl-4-pyridin-4-yl-cyclohexyl)-acetamid] | 99%
COc1cc(C)c(S(=O)(=O)Cc2c(C)nn(CC(=O)NC3CCN(C)CC3(C)C)c2C)c(C)c1 (stereo not drawn) [CC-184, 2-[4-[[(4-Methoxy-2,6-dimethyl-phenyl)sulfonyl]-methyl]-3,5-dimethyl-1H-pyrazol-1-yl]-N-(1,3,3-trimethyl-piperidin-4-yl)-acetamid] | 100%
COCCN1CCC(NC(=O)Cc2nc(CS(=O)(=O)c3cccc(Cl)c3Cl)no2)C(C)(C)C1 (stereo not drawn) [CC-72, 2-[3-[[(2,3-Dichlor-phenyl)sulfonyl]-methyl]-[1,2,4]oxadiazol-5-yl]-N-[1-(2-methoxy-ethyl)-3,3-di-methyl-piperidin-4-yl]-acetamid] | 60%
COc1cc(C)c(S(=O)(=O)Cc2c(C)nn(CC(=O)NC3CCNCC3(C)C)c2C)c(C)c1 (stereo not drawn) [CC-180, N-(3,3-Dimethyl-piperidin-4-yl)-2-[4-[[(4-methoxy-2,6-dimethyl-phenyl)sulfonyl]-methyl]-3,5-dimethyl-1 H-pyrazol-1-yl]-acetamid] | 98%
COc1cc(C)c(S(=O)(=O)Cc2c(C)nn(CC(=O)N(C)C3CCNCC3(C)C)c2C)c(C)c1 (stereo not drawn) [CC-185, N-(3,3-Dimethyl-piperidin-4-yl)-2-[4-[[(4-methoxy-2,6-dimethyl-phenyl)sulfonyl]-methyl]-3,5-dimethyl-1 H-pyrazol-1-yl]-N-methyl-acetamid] | 72%
COc1cc(C)c(S(=O)(=O)Cc2cn(CC(=O)N(C)C3CCNCC3(C)C)nn2)c(C)c1 (stereo not drawn) [CC-181, N-(3,3-Dimethyl-piperidin-4-yl)-2-[4-[[(4-methoxy-2,6-dimethyl-phenyl)sulfonyl]-methyl]-1 H-[1,2,3]-triazol-1-yl]-N-methyl-acetamid] | 99%
COc1cc(C)c(S(=O)(=O)Cc2nnc(CC(=O)N(C)C3CCNCC3(C)C)o2)c(C)c1 (stereo not drawn) [CC-88, N-(3,3-Dimethyl-piperidin-4-yl)-2-[5-[[(4-methoxy-2,6-dimethyl-phenyl)sulfonyl]-methyl]-[1,3,4]oxadiazol-2-yl]-N-methyl-acetamid] | 97%
COc1cc(C)c(S(=O)(=O)Cc2nnc(CC(=O)N(C3CCC(N(C)C)CC3)C3CC3)o2)c(C)c1 (stereo not drawn) [CC-124, N-Cyclopropyl-N-(4-dimethylamino-cyclohexyl)-2-[5-[[(4-methoxy-2,6-dimethyl-phenyl)sulfonyl]-methyl]-[1,3,4]oxadiazol-2-yl]-acetamid] | 100%
Cc1cccc(Cl)c1S(=O)(=O)Cc1noc(CC(=O)NC2CCC(N3CCN(C)CC3)CC2(C)C)n1 (stereo not drawn) [CC-98, 2-[3-[[(2-Chlor-6-methyl-phenyl)sulfonyl]-methyl]-[1,2,4]oxadiazol-5-yl]-N-[2,2-dimethyl-4-(4-methyl-piperazin-1-yl)-cyclohexyl]-acetamid] | 100%
COc1cc(C)c(S(=O)(=O)Cc2noc(C(=O)NC3CCN(c4ccc(C(F)(F)F)cn4)CC3)n2)c(C)c1 [CC-02, 3-[[(4-Methoxy-2,6-dimethyl-phenyl)sulfonyl]-methyl]-N-[1-[5-(trifluormethyl)-pyridin-2-yl]-piperidin-4-yl]-[1,2,4]oxadiazol-5-carbonsäure amid] | 86%
COc1cc(C)c(S(=O)(=O)Cc2nnc(CC(=O)NC3CCNCC3)o2)c(C)c1 [CC-97, 2-[5-[[(4-Methoxy-2,6-dimethyl-phenyl)sulfonyl]-methyl]-[1,3,4]oxadiazol-2-yl]-N-piperidin-4-yl-acetamid] | 98%

Results, then the compound that gave them:

inhibition at 10 µM | Compound
100% | COc1cc(C)c(S(=O)(=O)Cc2noc(C(=O)N3CCC4(CCN(c5ccncc5)CC4)C3)n2)c(C)c1 [SC-04, [3-[[(4-Methoxy-2,6-dimethyl-phenyl)sulfonyl]-methyl]-[1,2,4]oxadiazol-5-yl]-(8-pyridin-4-yl-3,8-diazaspiro[4.5]decan-3-yl)-methanon]
100% | COc1cc(C)c(S(=O)(=O)Cc2nc(C(=O)N3CCC(CN4CCN(C)CC4)C3)no2)c(C)c1 (stereo not drawn) [SC-88, [5-[[(4-Methoxy-2,6-dimethyl-phenyl)sulfonyl]-methyl]-[1,2,4]oxadiazol-3-yl]-[3-[(4-methyl-piperazin-1-yl)-methyl]-pyrrolidin-1-yl]-methanon]
98% | COc1cc(C)c(S(=O)(=O)Cc2noc(CC(=O)NC3CCOCC3(C)C)n2)c(C)c1 (stereo not drawn) [SC-36, N-(3,3-Dimethyl-tetrahydro-pyran-4-yl)-2-[3-[[(4-methoxy-2,6-dimethyl-phenyl)sulfonyl]-methyl]-[1,2,4]oxadiazol-5-yl]-acetamid]
100% | COc1cc(C)c(S(=O)(=O)Cc2noc(CC(=O)NC3CCC(c4ccnc(OC)c4)CC3(C)C)n2)c(C)c1 (stereo not drawn) [SC-40, 2-[3-[[(4-Methoxy-2,6-dimethyl-phenyl)sulfonyl]-methyl]-[1,2,4]oxadiazol-5-yl]-N-[4-(2-methoxy-pyridin-4-yl)-2,2-dimethyl-cyclohexyl]-acetamid]
100% | COc1cc(C)c(S(=O)(=O)Cc2noc(CC(=O)NC3CCC(c4ccncc4)CC3)n2)c(C)c1 (stereo not drawn) [SC-37, 2-[3-[[(4-Methoxy-2,6-dimethyl-phenyl)sulfonyl]-methyl]-[1,2,4]oxadiazol-5-yl]-N-(4-pyridin-4-yl-cyclohexyl)-acetamid]
100% | COc1cc(C)c(S(=O)(=O)Cc2noc(CC(=O)NC3CCC(N4CCN(C)CC4)CC3(C)C)n2)c(C)c1 (stereo not drawn) [SC-13, N-[2,2-Dimethyl-4-(4-methyl-piperazin-1-yl)-cyclohexyl]-2-[3-[[(4-methoxy-2,6-dimethyl-phenyl)sulfonyl]-methyl]-[1,2,4]oxadiazol-5-yl]-acetamid]
90% | COc1cc(C)c(S(=O)(=O)Cc2c(C)nn(CC(=O)N3CCC(CN4CCN(C)CC4)C3)c2C)c(C)c1 (stereo not drawn) [SC-92, 2-[4-[[(4-Methoxy-2,6-dimethyl-phenyl)sulfonyl]-methyl]-3,5-dimethyl-1H-pyrazol-1-yl]-1-[3-[(4-methyl-piperazin-1-yl)-methyl]-pyrrolidin-1-yl]-ethanon]
100% | COc1cc(C)c(S(=O)(=O)Cc2noc(CC(=O)N(C)C3CCN(C4CCC(C)CC4)CC3)n2)c(C)c1 (stereo not drawn) [SC-20, 2-[3-[[(4-Methoxy-2,6-dimethyl-phenyl)sulfonyl]-methyl]-[1,2,4]oxadiazol-5-yl]-N-methyl-N-[1-(4-methyl-cyclohexyl)-piperidin-4-yl]-acetamid]
100% | COc1cc(C)c(S(=O)(=O)Cc2noc(CC(=O)N(C)C3CCN(Cc4ccnc(N5CCCC5)c4)CC3)n2)c(C)c1 [SC-57, 2-[3-[[(4-Methoxy-2,6-dimethyl-phenyl)sulfonyl]-methyl]-[1,2,4]oxadiazol-5-yl]-N-methyl-N-[1-[(2-pyrrolidin-1-yl-pyridin-4-yl)-methyl]-piperidin-4-yl]-acetamid]
97% | COc1cc(C)c(S(=O)(=O)Cc2noc(CC(=O)N3CCC(c4ccncc4)CC3)n2)c(C)c1 [SC-41, 2-[3-[[(4-Methoxy-2,6-dimethyl-phenyl)sulfonyl]-methyl]-[1,2,4]oxadiazol-5-yl]-1-(4-pyridin-4-yl-piperidin-1-yl)-ethanon]
